Experimental data published in patent US6436962B1, “Arylhydantoin derivatives and uses thereof” (Merck & Co., Inc., priority 1999, dated 2002).
Counter-ions that a name gives are not always drawn.

Legend:
[1] = target: T1, human alpha 1a adrenergic receptor (Homo sapiens, UniProt P35348); experiment: Screening assay: alpha 1a adrenergic receptor binding ([125I]-HEAT competition); details: membranes from stably transfected human alpha 1a cell line (ATCC CRL 11140), 100 pM [125I]-HEAT
T1 sequence (P35348 1-466): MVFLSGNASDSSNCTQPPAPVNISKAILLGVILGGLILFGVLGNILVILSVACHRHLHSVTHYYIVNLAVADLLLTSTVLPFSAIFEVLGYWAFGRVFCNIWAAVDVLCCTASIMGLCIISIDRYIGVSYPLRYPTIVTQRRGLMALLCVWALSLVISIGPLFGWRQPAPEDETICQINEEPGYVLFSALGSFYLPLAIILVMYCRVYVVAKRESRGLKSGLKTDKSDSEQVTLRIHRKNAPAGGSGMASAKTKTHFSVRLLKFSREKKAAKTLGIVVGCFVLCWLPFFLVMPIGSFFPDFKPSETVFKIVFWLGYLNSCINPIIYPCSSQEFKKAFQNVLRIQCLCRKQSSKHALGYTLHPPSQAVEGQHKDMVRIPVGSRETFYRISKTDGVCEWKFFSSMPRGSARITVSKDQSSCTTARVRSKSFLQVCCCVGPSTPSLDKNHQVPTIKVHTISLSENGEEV
Protocol: Screening Assay: Alpha 1a Adrenergic Receptor Binding
These competition binding reactions (total volume=200 μl) contained 50 mM Tris-HCl pH. […] Reactions were incubated at room temperature for one hour with shaking. Reactions were filtered onto Whatman GF/C glass fiber filters with a Inotec 96 well cell harvester. Filters were washed three times with ice cold buffer and bound radioactivity was determined (Ki).

| SMILES | melting point | Ki [1] |
| --- | --- | --- |
| COCN1C(=O)N(CCCN2CCC(C#N)(c3ccccc3C)CC2)C(=O)C1(c1ccc(C)cc1)c1ccc(C)cc1 | 53 to 55 °C | – |
| Cc1ccc(C2(c3ccc(C)cc3)NC(=O)N(CCCN3CCC4(CC3)C(=O)Nc3ccccc34)C2=O)cc1 (as salt: hydrochloride) [Compound 21, 3-{3-(spiro[3H-indole-3,4′-piperidin]-2(1H)-on-1′-yl)propyl}-5,5-bis(4-methylphenyl)-imidazolin-2,4-dione hydrochloride] | > 210 °C | – |
| Cc1ccc(C2(c3ccc(C)cc3)NC(=O)N(CCCN3CCN(c4ccccc4C(N)=O)CC3)C2=O)cc1 (as salt: hydrochloride) [Compound 25, 3-{3-[4-(2-aminocarbonylphenyl)-piperazin-1-yl]propyl}-5,5-bis(4-methylphenyl)-imidazolin-2,4-dione dihydrochloride] | 160 to 163 °C | – |
| Cc1ccc(C2(c3ccc(C)cc3)NC(=O)N(CCCN3CCN(c4ccccc4C#N)CC3)C2=O)cc1 (as salt: hydrochloride) [Compound 27, 3-{3-[4-(2-cyanophenyl)-piperazin-1-yl]propyl}-5,5-bis(4-methylphenyl)-imidazolin-2,4-dione hydrochloride] | 236 °C | – |
| COC(=O)C1CN(CCCN2C(=O)NC(c3ccc(C)cc3)(c3ccc(C)cc3)C2=O)CCC1Nc1ccccc1Cl.Cl (racemic) | 160 to 163 °C | – |
| CC1(c2ccccc2)NC(=O)N(CCCN2CCC(C#N)(c3ccccc3)CC2)C1=O (racemic) (as salt: hydrochloride) | 222 to 223 °C | – |
| Cc1ccc(C2(c3ccccc3)NC(=O)N(CCCN3CCC(C#N)(c4ccccc4)CC3)C2=O)cc1 (racemic) [Compound 11, (+/−)-3-{3-[4-phenyl4-cyanopiperidin-1-yl]propyl-}5-(4-methylphenyl)-5-phenyl-imidazolin-2,4-dione trifluoroacetate] | – | < 20 nM |
| Cc1ccc(C2(c3ccccn3)NC(=O)N(CCCN3CCC(C#N)(c4ccccc4C)CC3)C2=O)cc1 (racemic) [Compound 13, (+/−)-3-{3-[4-(2-methylphenyl)-4-cyanopiperidin-1-yl]propyl}-5-(4-methylphenyl)-5-(2-pyridyl)-imidazolin-2,4-dione] | – | < 20 nM |
| CCCCCC1(c2ccc(C)cc2)NC(=O)N(CCCN2CCC(C#N)(c3ccccc3C)CC2)C1=O (racemic) [Compound 16] | – | < 20 nM |
| CCCCCC1(c2ccc(F)c(F)c2)NC(=O)N(CCCN2CCC(C#N)(c3ccccc3C)CC2)C1=O (racemic) [Compound 17, (+/−)-3-{3-[4-(2-methylphenyl)-4-cyanopiperidin-1-yl]propyl}-5-pentyl-5-(3,4-difluoro-phenyl)-imdazolin-2,4-dione hydrochloride] | – | < 20 nM |
| Cc1ccc(C2(C(C)C)NC(=O)N(CCCN3CCC(C#N)(c4ccccc4C)CC3)C2=O)cc1 (racemic) [Compound 31, (+/−)-3-{3-[4-(2-methylphenyl)4-cyanopiperidin-1-yl]propyl}-5-isopropyl-5-(4-methylphenyl)-imidazolin-2,4-dione hydrochloride] | – | < 20 nM |
| Cc1ccc(C2(c3ccc(C)cc3)NC(=O)N(CCCN3CCC(C#N)(c4ccccc4)CC3)C2=O)cc1 [Compound 1, 3-[3-(4-Phenyl-4-cyanopiperidin-1-yl)propyl]-5,5-bis(4-methylphenyl)-imidazolin-2,4-dione] | – | < 20 nM |
| Cc1ccc(C2(c3ccc(C)cc3)NC(=O)N(CCCN3CCC(c4ccccn4)CC3)C2=O)cc1 [Compound 3, 3-{3-[4-(2-Pyridyl)piperidin-1-yl]propyl}-5,5-bis(4-methylphenyl)-imidazolin-2,4-dione] | – | < 20 nM |
| Cc1ccc(C2(c3ccc(C)cc3)NC(=O)N(CCCN3CCC4(C=Cc5ccccc54)CC3)C2=O)cc1 [Compound 4, 3-{3-(spiro[1H-indeno-1,4′-piperidin]-1′-yl)propyl}-5,5-bis(4-methylphenyl)-imidazolin-2,4-dione] | – | < 20 nM |
| Cc1ccc(C2(c3ccc(C)cc3)NC(=O)N(CCCN3CCC4(CC3)C(=O)Cc3ccccc34)C2=O)cc1 [Compound 5, 3-{3-(2,3-dihydro-spiro[indeno-1,4′-piperidin]-2(3H)-on-1′-yl)propyl}-5,5-bis(4-methylphenyl)-imidazolin-2,4-dione] | – | < 20 nM |
| Cc1ccc(C2(c3ccc(C)cc3)NC(=O)N(CCCN3CCC4(CC3)OC(=O)Nc3ccccc34)C2=O)cc1 [Compound 6, 3-{3-(spiro[4H-3,1-benzoxazine-4,4′-piperidin]-2(1H)-on-1′-yl)propyl}-5,5-bis(4-methylphenyl)-imidazolin-2,4-dione] | – | < 20 nM |

| SMILES | melting point | Ki [1] |
| --- | --- | --- |
| Cc1ccc(C2(c3ccc(C)cc3)NC(=O)N(CCCN3CCC4(CC3)OC(=O)Nc3ccc(Cl)cc34)C2=O)cc1 [Compound 7, 3-{3-(6-chloro-spiro[4H-3,1-benzoxazine-4,4′-piperidin]-2(1H)-on-1′-yl)propyl}-5,5-bis(4-methylphenyl)-imidazolin-2,4-dione] | – | < 20 nM |
| Cc1ccc(C2(c3ccc(C)cc3)NC(=O)N(CCCN3CCC4(CC3)OC(=O)N(C)c3ccc(Cl)cc34)C2=O)cc1 [Compound 8, 3-{3-(1-methyl-6-chloro-spiro[4H-3,1-benzoxazine-4,4′-piperidin]-2(1H)-on-1′yl)propyl}5,5-bis(4-methylphenyl)-imidazolin-2,4-dione] | – | < 20 nM |
| Cc1ccc(C2(c3ccc(C)cc3)NC(=O)N(CCCN3CCC4(CC3)OC(=O)N(C)c3ccccc34)C2=O)cc1 [Compound 9] | – | < 20 nM |
| N#CC1(c2ccccc2)CCN(CCCN2C(=O)NC(c3ccc(Cl)cc3)(c3ccc(Cl)cc3)C2=O)CC1 [Compound 10, 3-{3-[4-phenyl-4-cyanopiperidin-1-yl]propyl}-5,5-bis(4-chlorophenyl)-imidazolin-2,4-dione hydrochloride] | – | < 20 nM |
| Cc1ccccc1C1(C#N)CCN(CCCN2C(=O)NC(c3ccc(F)cc3)(c3ccc(F)cc3)C2=O)CC1 [Compound 12, 3-{3-[4-(2-methylphenyl)-4-cyanopiperidin-1-yl]propyl}-5,5-bis(4-fluorophenyl)-imidazolin-2,4-dione hydrochloride] | – | < 20 nM |
| CN1C(=O)OC2(CCN(CCCN3C(=O)NC(c4ccc(Cl)cc4)(c4ccc(Cl)cc4)C3=O)CC2)c2cc(Cl)ccc21 [Compound 14, 3-{3-(1-methyl-6-chloro-spiro[4H-3,1-benzoxazine-4,4′-piperidin]-2(1H)-on-1′-yl)propyl}1-5,5-bis(4-chlorophenyl)-imidazolin-2,4-dione] | – | < 20 nM |
| Cc1ccc(C2(c3ccc(C)cc3)NC(=O)N(CCCN3CCC4(CC3)C(=O)Nc3ccccc34)C2=O)cc1 [Compound 21, 3-{3-(spiro[3H-indole-3,4′-piperidin]-2(1H)-on-1′-yl)propyl}-5,5-bis(4-methylphenyl)-imidazolin-2,4-dione hydrochloride] | – | < 20 nM |
| Cc1ccc(C2(c3ccc(C)cc3)NC(=O)N(CCCN3CCC4(CC3)OC(=O)Nc3ccc(F)cc34)C2=O)cc1 [Compound 23, 3-{3-(6-fluoro-spiro[4H-3,1-benzoxazine4,4′-piperidin]-2(1H)-on-1′-yl)propyl}bis(4-methylphenyl)-imidazolin-2,4-dione] | – | < 20 nM |
| Cc1ccc(C2(c3ccc(C)cc3)NC(=O)N(CCCN3CCN(c4ccccc4C(N)=O)CC3)C2=O)cc1 [Compound 25, 3-{3-[4-(2-aminocarbonylphenyl)-piperazin-1-yl]propyl}-5,5-bis(4-methylphenyl)-imidazolin-2,4-dione dihydrochloride] | – | < 20 nM |
| Cc1ccc(C2(c3ccc(C)cc3)NC(=O)N(CCCN3CCC(c4ccc(F)cc4C#N)CC3)C2=O)cc1 [Compound 26] | – | < 20 nM |
| Cc1ccc(C2(c3ccc(C)cc3)NC(=O)N(CCCN3CCN(c4ccccc4C#N)CC3)C2=O)cc1 [Compound 27, 3-{3-[4-(2-cyanophenyl)-piperazin-1-yl]propyl}-5,5-bis(4-methylphenyl)-imidazolin-2,4-dione hydrochloride] | – | < 20 nM |
| Cc1ccc(C2(c3ccc(C)cc3)NC(=O)N(CCCCN3CCC4(C=Cc5ccccc54)CC3)C2=O)cc1 [Compound 28, 3-{4-(spiro[indeno-1,4′-piperidin]-1′-yl)butyl}-5,5-bis(4-methylphenyl)-imidazolin-2,4-dione] | – | < 20 nM |
| Cc1ccc(C2(c3ccc(C)cc3)NC(=O)N(CCCN3CCC4(CC3)OC(=O)N(CC(F)(F)F)c3ccc(Cl)cc34)C2=O)cc1 [Compound 29, 3-{3-[1-(2,2,2-trifluoroethyl)-6-chloro-spiro[4H-3,1-benzoxazine-4,4′-piperidin]-2(1H)-on-1′-yl]propyl}-5,5-bis(4-methylphenyl)-imidazolin-2,4-dione] | – | < 20 nM |
| Cc1ccc(C2(c3ccc(C)cc3)NC(=O)N(CCCN3CCC(n4c(=O)[nH]c5cc(Cl)ccc54)CC3)C2=O)cc1 [Compound 34, 3-{3-[4-(5-chloro-2-oxo-1-benzimidazolinyl)piperidin-1-yl]propyl}-5,5-bis(4-methylphenyl)-imidazolin-2,4-dione] | 144 to 155 °C | – |
| Cc1ccc(C2(c3ccc(C)cc3)C(=O)N(CCCN3CCC(C#N)(c4ccccc4C)CC3)C(=O)N2C)cc1 [Compound 36, 1-Methyl-3-{3-[4-(2-methylphenyl)-4-cyanopiperidin-1-yl]propyl}-bis-5,5-(4-methylphenyl)-imidazolin-2,4-dione] | – | < 20 nM |
